Activity calls are given as the source filed them.
Each molecule was assayed against T1, Cysteine protease ATG4B (Homo sapiens, UniProt Q9Y4P1) (assay: not given). Settings: not given.
T1 sequence (Q9Y4P1 whole entry): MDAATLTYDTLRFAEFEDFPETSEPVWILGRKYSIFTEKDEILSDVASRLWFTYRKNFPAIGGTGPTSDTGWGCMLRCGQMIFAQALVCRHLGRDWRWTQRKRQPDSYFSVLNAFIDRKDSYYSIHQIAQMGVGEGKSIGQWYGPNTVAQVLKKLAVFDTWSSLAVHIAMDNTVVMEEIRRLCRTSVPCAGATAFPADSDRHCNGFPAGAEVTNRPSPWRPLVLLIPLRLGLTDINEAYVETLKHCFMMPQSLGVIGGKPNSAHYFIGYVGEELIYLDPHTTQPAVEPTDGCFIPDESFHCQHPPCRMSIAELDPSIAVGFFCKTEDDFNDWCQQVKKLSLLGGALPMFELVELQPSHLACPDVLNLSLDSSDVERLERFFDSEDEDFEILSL
Format: functional

SMILES | IC50
C=CCn1c(SCc2nc3scc(-c4ccccc4)c3c(=O)[nH]2)nnc1-c1ccccc1F | 15.9 µM (active)
Cc1cccc(N2CCN(C(=O)C3CCN(c4ncnc5c4nc4n5CCCCC4)CC3)CC2C)c1 (stereo unspecified) | 15.3 µM (active)
Oc1c(Cl)cc(Cl)cc1/C=N/c1ccc2c(c1)OCCO2 | 7.3 µM (active)
Cc1ccc2nc(N/N=C/c3ccccc3F)nc(-c3ccccc3)c2c1 | 17.9 µM (active)

What follows are molecules tested against Cytochrome P450 2C19 (Homo sapiens, UniProt P33261) (assay: Cytochrome panel assay with activity outcomes. Panel member name: p450-cyp2c19 Compounds with AC50 equal or less than 10 uM are considered active). Settings: read-out: AC50.
Cytochrome P450 2C19, sequence (P33261 whole entry): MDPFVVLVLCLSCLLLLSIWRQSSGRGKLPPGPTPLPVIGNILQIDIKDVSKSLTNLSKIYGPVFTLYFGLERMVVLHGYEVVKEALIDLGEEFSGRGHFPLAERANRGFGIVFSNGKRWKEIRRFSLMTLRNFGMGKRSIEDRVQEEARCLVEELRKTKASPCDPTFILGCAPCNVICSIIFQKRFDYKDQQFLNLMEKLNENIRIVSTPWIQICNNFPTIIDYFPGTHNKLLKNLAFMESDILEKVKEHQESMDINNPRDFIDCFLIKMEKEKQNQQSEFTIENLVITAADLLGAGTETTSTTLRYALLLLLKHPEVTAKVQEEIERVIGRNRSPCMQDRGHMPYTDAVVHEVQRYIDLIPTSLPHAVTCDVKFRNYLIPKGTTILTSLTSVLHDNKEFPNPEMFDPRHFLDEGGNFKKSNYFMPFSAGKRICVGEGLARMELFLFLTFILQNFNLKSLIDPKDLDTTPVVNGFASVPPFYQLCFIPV
Format: functional

SMILES | AC50
CCCCCN1CC(=O)C(c2nc(-c3ccc(Cl)cc3)cs2)=C1N | 1.12 µM (inconclusive)

The molecules below were run on P388 (assay: cells). Settings: Mus musculus.
Format: functional

SMILES | GI50
CC12CCC(C(=O)N3CC=CCC3)(OC1=O)C2(C)C (stereo unspecified) | > 100 µM (inactive)
O=C[C@@H](CO)O[C@H](C=O)c1c[nH]c(=O)[nH]c1=O | > 80.7 µM (inactive)
CCCC(=O)OCC1OC(n2ccc(N)nc2=O)C(OC(=O)CCC)C1OC(=O)CCC (stereo unspecified) | 0.2 µM (active)
CC(C)Cc1ccc(C(C)C(=O)N2CCN(/C=C/c3ccccc3)CC2)cc1 (stereo unspecified) | 7.35 µM (inactive)
COC(=O)c1ccc(/N=N/N(C)COc2ccc(Br)cc2)cc1 | 27 µM (inactive)
O/N=N/c1cnccn1 | > 721 µM (inactive)

What follows are molecules tested on P388/ADR (assay: cells). Settings: Mus musculus.
Format: functional

SMILES | GI50
CC12CCC(C(=O)N3CC=CCC3)(OC1=O)C2(C)C (stereo unspecified) | > 100 µM (inactive)
O=C[C@@H](CO)O[C@H](C=O)c1c[nH]c(=O)[nH]c1=O | 38.1 µM (inactive)
CCCC(=O)OCC1OC(n2ccc(N)nc2=O)C(OC(=O)CCC)C1OC(=O)CCC (stereo unspecified) | 11.1 µM (inactive)
CC(C)Cc1ccc(C(C)C(=O)N2CCN(/C=C/c3ccccc3)CC2)cc1 (stereo unspecified) | 10.9 µM (inactive)
COC(=O)c1ccc(/N=N/N(C)COc2ccc(Br)cc2)cc1 | 32.8 µM (inactive)
O/N=N/c1cnccn1 | 668 µM (inactive)

These molecules were tested against T2, Carboxy-terminal domain RNA polymerase II polypeptide A small phosphatase 1 (Homo sapiens, UniProt Q9GZU7) (assay: inhibitors of CTDSP1, concentration-response testing, biochemical assay, absorbance-based, actives from ultra-high-throughput screening (AID 540297)). Settings: not given.
T2 sequence (Q9GZU7 whole entry): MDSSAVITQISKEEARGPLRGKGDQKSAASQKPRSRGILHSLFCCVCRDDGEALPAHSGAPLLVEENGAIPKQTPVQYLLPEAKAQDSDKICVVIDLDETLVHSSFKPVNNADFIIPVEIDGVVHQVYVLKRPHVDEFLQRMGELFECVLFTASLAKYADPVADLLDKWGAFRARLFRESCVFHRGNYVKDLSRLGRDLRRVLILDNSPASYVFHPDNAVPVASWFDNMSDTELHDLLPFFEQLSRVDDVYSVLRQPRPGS
Format: functional

SMILES | IC50
CSc1nc2nccc(-c3ccc(Cl)cc3)n2n1 | 11.3 µM (active)
CCCCCN1CC(=O)C(c2nc(-c3ccc(Cl)cc3)cs2)=C1N | 5.38 µM (active)
O=C(N/N=C/c1cccn1-c1cccc(C(=O)O)c1)Nc1ccccc1 | 8.69 µM (active)
CCOC(=O)C1=C(C)N=c2s/c(=C\c3cccc(OCC(=O)O)c3)c(=O)n2C1c1ccccc1OC (stereo unspecified) | 4.32 µM (active)

Each molecule was assayed against T3, High affinity choline transporter 1 (Homo sapiens, UniProt Q9GZV3) (assay: CHT inhibitors, dose response, cell-based, 5-point CRC, membrane potential dye (AID 504840)). Settings: not given.
T3 sequence (Q9GZV3 whole entry): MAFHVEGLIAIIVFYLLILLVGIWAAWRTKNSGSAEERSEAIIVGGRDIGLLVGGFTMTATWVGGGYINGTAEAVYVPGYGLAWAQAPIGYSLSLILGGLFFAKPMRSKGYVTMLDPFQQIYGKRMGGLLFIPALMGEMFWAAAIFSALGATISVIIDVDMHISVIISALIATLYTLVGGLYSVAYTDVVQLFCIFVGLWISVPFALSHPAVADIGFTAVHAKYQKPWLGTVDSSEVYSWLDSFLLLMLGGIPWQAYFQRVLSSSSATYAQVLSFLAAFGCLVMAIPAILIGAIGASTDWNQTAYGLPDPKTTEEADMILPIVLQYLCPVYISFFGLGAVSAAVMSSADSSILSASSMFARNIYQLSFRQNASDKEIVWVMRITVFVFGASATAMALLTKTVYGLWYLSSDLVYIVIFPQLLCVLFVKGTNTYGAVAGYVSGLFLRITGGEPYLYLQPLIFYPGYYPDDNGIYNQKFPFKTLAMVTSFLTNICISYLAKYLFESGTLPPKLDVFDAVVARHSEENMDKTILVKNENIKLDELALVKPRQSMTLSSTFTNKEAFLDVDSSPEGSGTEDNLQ
Format: functional

SMILES | IC50
Oc1c(Cl)cc(Cl)cc1/C=N/c1ccc2c(c1)OCCO2 | 10 µM (active)

These molecules were tested against T4, Short transient receptor potential channel 4 (Mus musculus, UniProt Q9QUQ5) (assay: mouse TRPC4 channel activators, dose response, cell-based, HEK293 TRPC4/mu-opioid, Fluo-4 calcium (AID 434937)). Settings: not given.
T4 sequence (Q9QUQ5 whole entry): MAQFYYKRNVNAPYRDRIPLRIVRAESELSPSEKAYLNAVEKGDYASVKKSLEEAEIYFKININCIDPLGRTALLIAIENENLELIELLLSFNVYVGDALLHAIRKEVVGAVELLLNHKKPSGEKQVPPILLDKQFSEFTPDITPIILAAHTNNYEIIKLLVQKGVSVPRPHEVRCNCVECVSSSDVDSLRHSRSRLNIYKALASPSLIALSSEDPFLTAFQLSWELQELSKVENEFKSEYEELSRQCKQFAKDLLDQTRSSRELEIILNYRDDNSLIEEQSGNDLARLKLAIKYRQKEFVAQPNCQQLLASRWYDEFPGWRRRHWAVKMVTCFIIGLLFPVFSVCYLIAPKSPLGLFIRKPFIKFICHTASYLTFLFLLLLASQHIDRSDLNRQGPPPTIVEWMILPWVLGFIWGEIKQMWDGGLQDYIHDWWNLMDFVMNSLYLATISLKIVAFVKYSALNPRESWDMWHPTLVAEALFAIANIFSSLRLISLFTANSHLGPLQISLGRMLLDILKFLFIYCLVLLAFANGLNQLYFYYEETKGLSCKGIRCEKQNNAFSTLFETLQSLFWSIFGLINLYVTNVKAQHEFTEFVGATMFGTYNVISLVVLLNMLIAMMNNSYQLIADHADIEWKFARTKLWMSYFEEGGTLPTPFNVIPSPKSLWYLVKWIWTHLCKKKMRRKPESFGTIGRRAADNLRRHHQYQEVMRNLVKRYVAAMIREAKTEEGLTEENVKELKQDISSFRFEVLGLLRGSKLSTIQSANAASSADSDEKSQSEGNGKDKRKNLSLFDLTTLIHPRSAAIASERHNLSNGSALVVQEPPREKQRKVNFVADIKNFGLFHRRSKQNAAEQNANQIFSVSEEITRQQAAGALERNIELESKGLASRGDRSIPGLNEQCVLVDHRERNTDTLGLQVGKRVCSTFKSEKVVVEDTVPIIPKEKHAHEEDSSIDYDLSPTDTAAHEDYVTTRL
Format: functional

SMILES | EC50
O=c1c(Cc2ccc(F)cc2)c(O)ccn1CCc1c[nH]cn1 | 5.31 µM (active)
COc1ccc(C(CNC(=O)c2cc(C)on2)N(C)C)cc1 (stereo unspecified) | 0.376 µM (active)
COc1ccc(C(CNC(=O)C2CCN(S(=O)(=O)c3ccc(F)cc3)CC2)N(C)C)cc1 (stereo unspecified) | 2.11 µM (active)
CC(=O)Nc1ccc(CN2CCCC(C(=O)c3ccc(C(F)(F)F)cc3)C2)cc1 (stereo unspecified) | 2.66 µM (active)

Each molecule was assayed against T5, Cytochrome P450 1A2 (Homo sapiens, UniProt P05177) (assay: not given). Settings: not given.
T5 sequence (P05177 whole entry): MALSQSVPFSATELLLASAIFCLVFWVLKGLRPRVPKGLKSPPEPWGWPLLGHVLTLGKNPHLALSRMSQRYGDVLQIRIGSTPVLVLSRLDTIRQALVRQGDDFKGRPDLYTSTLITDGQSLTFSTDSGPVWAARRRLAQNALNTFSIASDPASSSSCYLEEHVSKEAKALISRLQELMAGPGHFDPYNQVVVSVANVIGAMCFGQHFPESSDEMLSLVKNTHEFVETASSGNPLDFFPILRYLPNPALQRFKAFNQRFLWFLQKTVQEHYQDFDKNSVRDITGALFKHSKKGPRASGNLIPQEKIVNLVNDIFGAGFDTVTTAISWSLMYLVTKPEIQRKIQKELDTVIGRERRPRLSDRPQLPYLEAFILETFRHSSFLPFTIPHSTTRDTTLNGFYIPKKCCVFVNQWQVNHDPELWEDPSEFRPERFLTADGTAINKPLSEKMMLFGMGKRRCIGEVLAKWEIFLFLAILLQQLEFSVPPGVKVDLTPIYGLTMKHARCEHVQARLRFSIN

SMILES | AC50
CCCCCN1CC(=O)C(c2nc(-c3ccc(Cl)cc3)cs2)=C1N | 1.58 µM (inconclusive)

What follows are molecules tested on SN12K1 (assay: cells). Settings: Homo sapiens.
Format: functional

SMILES | GI50
CC12CCC(C(=O)N3CC=CCC3)(OC1=O)C2(C)C (stereo unspecified) | > 100 µM (inactive)
O=C[C@@H](CO)O[C@H](C=O)c1c[nH]c(=O)[nH]c1=O | 76.6 µM (inactive)
CCCC(=O)OCC1OC(n2ccc(N)nc2=O)C(OC(=O)CCC)C1OC(=O)CCC (stereo unspecified) | 1.86 µM (inactive)
CC(C)Cc1ccc(C(C)C(=O)N2CCN(/C=C/c3ccccc3)CC2)cc1 (stereo unspecified) | 13.7 µM (inactive)
COC(=O)c1ccc(/N=N/N(C)COc2ccc(Br)cc2)cc1 | > 66.8 µM (inactive)
O/N=N/c1cnccn1 | 1070 µM (inactive)

Each molecule was assayed against T6, RNA-binding protein pos-1 (Caenorhabditis elegans, UniProt G5EF15) (assay: inhibitors of POS-1/mex-3 RNA binding, dose response, biochemical, fluorescence polarization (AID 1964)). Settings: not given.
T6 sequence (G5EF15 whole entry): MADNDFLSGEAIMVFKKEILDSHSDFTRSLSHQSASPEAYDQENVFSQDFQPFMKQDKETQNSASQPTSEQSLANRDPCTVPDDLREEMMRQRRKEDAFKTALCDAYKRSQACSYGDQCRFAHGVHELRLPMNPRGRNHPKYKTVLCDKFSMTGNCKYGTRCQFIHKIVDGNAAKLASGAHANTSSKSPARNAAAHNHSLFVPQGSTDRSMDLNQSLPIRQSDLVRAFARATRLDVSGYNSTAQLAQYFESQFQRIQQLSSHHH

SMILES | EC50
O=C(N/N=C/c1cccn1-c1cccc(C(=O)O)c1)Nc1ccccc1 | > 300 µM (not active)

The molecules below were run against Phospholipase A2 (Homo sapiens, UniProt P04054) (assay: not given). Settings: not given.
Phospholipase A2, sequence (P04054 whole entry): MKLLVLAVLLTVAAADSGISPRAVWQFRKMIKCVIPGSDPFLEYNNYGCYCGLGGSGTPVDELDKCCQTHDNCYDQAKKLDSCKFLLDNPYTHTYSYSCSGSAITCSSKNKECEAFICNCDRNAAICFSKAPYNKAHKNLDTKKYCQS
Format: functional

SMILES | IC50
C=CCn1c(SCc2nc3scc(-c4ccccc4)c3c(=O)[nH]2)nnc1-c1ccccc1F | 12.1 µM (active)
Cc1cccc(N2CCN(C(=O)C3CCN(c4ncnc5c4nc4n5CCCCC4)CC3)CC2C)c1 (stereo unspecified) | 11.1 µM (active)
Oc1c(Cl)cc(Cl)cc1/C=N/c1ccc2c(c1)OCCO2 | 11.2 µM (active)
Cc1ccc2nc(N/N=C/c3ccccc3F)nc(-c3ccccc3)c2c1 | 9.15 µM (active)

Each molecule was assayed against T7, Zinc finger protein mex-5 (Caenorhabditis elegans, UniProt Q9XUB2) (assay: MEX-5/TCR-2 RNA interaction inhibitors, dose response, biochemical, C. elegans, fluorescence polarization (AID 1960)). Settings: not given.
T7 sequence (Q9XUB2 whole entry): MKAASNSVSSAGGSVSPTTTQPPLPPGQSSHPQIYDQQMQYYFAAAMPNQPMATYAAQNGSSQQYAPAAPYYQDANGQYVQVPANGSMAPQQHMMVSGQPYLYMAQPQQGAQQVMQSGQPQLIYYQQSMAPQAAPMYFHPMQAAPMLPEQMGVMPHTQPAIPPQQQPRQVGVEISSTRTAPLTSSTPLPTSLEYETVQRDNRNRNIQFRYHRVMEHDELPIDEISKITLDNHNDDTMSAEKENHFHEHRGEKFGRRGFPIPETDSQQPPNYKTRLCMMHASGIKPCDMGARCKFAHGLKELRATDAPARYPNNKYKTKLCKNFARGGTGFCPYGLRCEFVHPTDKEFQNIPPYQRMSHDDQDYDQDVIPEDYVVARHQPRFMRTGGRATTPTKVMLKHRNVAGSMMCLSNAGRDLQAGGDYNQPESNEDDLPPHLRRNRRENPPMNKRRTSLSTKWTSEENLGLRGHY

SMILES | EC50
O=C(N/N=C/c1cccn1-c1cccc(C(=O)O)c1)Nc1ccccc1 | > 300 µM (not active)

Each molecule was assayed against Heat shock protein HSP 90-alpha (Homo sapiens, UniProt P07900) (assay: not given). Settings: not given.
Format: functional, organism-based

SMILES | AC50
O=C(/C=C/c1ccnc2ccccc12)c1cccs1 | 5.63 µM (active)
O=C(c1ccc(Cl)cc1)N1CCN(c2ccc(F)cc2)CC1 | 5.2 µM (active)

Source: ChEMBL document CHEMBL1201862, “PubChem BioAssay data set” (2004)
